Key:
Format in all cases: physicochemical
[1] = Water solubility of crystalline forms measured by HPLC
Procedure: Water solubility of Pattern D was measured by HPLC to determine how much the water solubility drops between Pattern C and Pattern D. To measure the solubility of Pattern D in H2O, ˜150 mg of Pattern D was slurried for 2 weeks at RT in 1 mL of H2O.

[2] = Dynamic Vapor Sorption (DVS) on Pattern D
[3] = Solid form stability on heating (XRPD, hot stage microscopy); conditions: hydrochloride salt trihydrate
Procedure: Amorphous material was generated through ball milling in the experiments with the goal to obtain a new crystalline form. […] Pattern D was determined to be a channel trihydrate, the form identification was confirmed by Single Crystal XRD.
FIG. 5 is an overlay of XRPD spectra of Pattern D heated to 90° C. and cooled back to room temperature; Pattern D heated to 150° C. and cooled back to room temperature; as well as Pattern C and Pattern D reference spectra.
FIG. 6 is an image of Pattern D heated to different temperatures obtained using hot stage microscopy (HSM).

SMILES: CC(C)(C)NC(=O)CN1CCC(CNC(=O)c2cc(F)cc(Cl)c2)CC1.Cl [Pattern D, N-((1-(2-(tert-butylamino)-2-oxoethyl)piperidin-4-yl)methyl)-3-chloro-5-fluorobenzamide hydrochloride salt trihydrate]
- form conversion after slurry in H2O (XRPD) ([1]; 2-week slurry in H2O at RT): no form conversion
- solubility at 2 weeks ([1]; water, thermodynamic from solid): 77.2 mg/mL
- mass gained in DVS ([2]; at 80% RH): ~10.45%
- water re-adsorbed after desolvation in DVS ([2]; by RH of 20%, after loss of moisture at RH close to 0): approximately 10.5%
- form change post DVS (XRPD) ([2]; post DVS): no clear form change
- form conversion on heating (XRPD) ([3]; heated to 90° C. and cooled back to room temperature): no form conversion
- form on further heating (XRPD) ([3]; heated to 150° C. and cooled back to room temperature): turns amorphous
